Data taken from ChEMBL document CHEMBL4706692, “CC-90009: A Cereblon E3 Ligase Modulating Drug That Promotes Selective Degradation of GSPT1 for the Treatment of Acute Myeloid Leukemia” (J Med Chem, 2021).

Columns and labels:
KG-1 = assay: Antiproliferative activity against human KG-1 cells assessed as reduction in cell viability incubated for 72 hrs by cell titer glo assay; assay type: functional, cell-based; details: KG-1, 72 h
THLE-2 = assay: Cytotoxicity against human THLE-2 cells assessed as cell viability incubated for 72 hrs by cell titer glo assay; assay type: cell-based; details: THLE-2, 72 h
[1] = Selectivity index, ratio of IC50 for cytotoxicity against human THLE-2 cells to IC50 for antiproliferative activity against human KG-1 cells

Compound: CC(C)(C(=O)NCc1ccc2c(c1)CN(C1CCC(=O)NC1=O)C2=O)c1ccccc1 (stereo unspecified)
- IC50 (KG-1): > 10000 nM
- IC50 (THLE-2): > 10000 nM

Compound: O=C1CCC(N2Cc3cc(CNC(=O)Nc4ccccc4)ccc3C2=O)C(=O)N1 (stereo unspecified)
- IC50 (KG-1): 15 nM
- Ratio IC50 [1]: 4
- IC50 (THLE-2): 60 nM

Compound: O=C(Cc1ccccc1)NCc1ccc2c(c1)CN(C1CCC(=O)NC1=O)C2=O (stereo unspecified)
- IC50 (KG-1): 37 nM
- Ratio IC50 [1]: 6
- IC50 (THLE-2): 231 nM

Compound: O=C1CCC(N2Cc3cc(CNC(=O)C(F)(F)c4ccccc4)ccc3C2=O)C(=O)N1 (stereo unspecified)
- IC50 (KG-1): 97 nM
- Ratio IC50 [1]: >100
- IC50 (THLE-2): > 10000 nM
